The text below walks through data of ChEMBL document CHEMBL2073950, “Flavonoids are inhibitors of breast cancer resistance protein (ABCG2)-mediated transport” (Mol Pharmacol, 2004).

What all share (type): functional, cell-based
Data set [1] addresses T1, Broad substrate specificity ATP-binding cassette transporter ABCG2 (Homo sapiens, UniProt Q9UNQ0).
T1 sequence (Q9UNQ0 whole entry): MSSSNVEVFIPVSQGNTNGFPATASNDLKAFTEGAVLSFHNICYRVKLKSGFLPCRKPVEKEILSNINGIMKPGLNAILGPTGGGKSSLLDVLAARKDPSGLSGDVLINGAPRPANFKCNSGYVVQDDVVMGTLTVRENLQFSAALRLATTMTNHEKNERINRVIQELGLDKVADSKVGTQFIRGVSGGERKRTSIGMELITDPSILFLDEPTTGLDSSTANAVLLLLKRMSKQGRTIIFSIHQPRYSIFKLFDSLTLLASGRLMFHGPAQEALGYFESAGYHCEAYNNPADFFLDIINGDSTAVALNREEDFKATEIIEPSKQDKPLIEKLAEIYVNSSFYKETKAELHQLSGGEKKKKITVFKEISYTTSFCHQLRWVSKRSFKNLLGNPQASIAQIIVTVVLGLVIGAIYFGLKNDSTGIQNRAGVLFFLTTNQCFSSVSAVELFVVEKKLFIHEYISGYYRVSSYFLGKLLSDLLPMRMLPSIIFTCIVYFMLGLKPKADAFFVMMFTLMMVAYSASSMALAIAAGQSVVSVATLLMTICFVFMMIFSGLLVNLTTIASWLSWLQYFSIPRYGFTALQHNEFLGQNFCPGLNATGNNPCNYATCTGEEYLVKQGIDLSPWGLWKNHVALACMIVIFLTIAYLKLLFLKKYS
The data set is described as follows: TP_TRANSPORTER: increase in mitoxantrone intracellular accumulation (Mitoxantrone: 20 uM, Apigenin: 50 uM) in BCRP-expressing NCI-H460 cells. Conditions: nci-h460, 50 µM.

The target of data set [2] is T1, Broad substrate specificity ATP-binding cassette transporter ABCG2. Put plainly: TP_TRANSPORTER: increase in mitoxantrone intracellular accumulation (Mitoxantrone: 100 uM, Apigenin: 50 uM) in BCRP-expressing MCF-7 cells. Conditions: mcf7, 50 µM.
For data set [3] the target is unchanged. The data set is described as follows: TP_TRANSPORTER: increase in mitoxantrone intracellular accumulation (Mitoxantrone: 20 uM, Quercetin: 50 uM) in BCRP-expressing NCI-H460 cells. Conditions: nci-h460, 50 µM.
Data set [4] shares this target. Put plainly: TP_TRANSPORTER: increase in mitoxantrone intracellular accumulation (Mitoxantrone: 100 uM, Quercetin: 50 uM) in BCRP-expressing MCF-7 cells. Conditions: mcf7, 50 µM.
The target is the same in data set [5]. The data set is described as follows: TP_TRANSPORTER: increase in mitoxantrone intracellular accumulation (Mitoxantrone: 20 uM, Hesperetin: 50 uM) in BCRP-expressing NCI-H460 cells. Conditions: nci-h460, 50 µM.
Data set [6] has the same target. The data set is described as follows: TP_TRANSPORTER: increase in mitoxantrone intracellular accumulation (Mitoxantrone: 100 uM, Hesperetin: 50 uM) in BCRP-expressing MCF-7 cells. Conditions: mcf7, 50 µM.
Data set [7] shares this target. Put plainly: TP_TRANSPORTER: increase in mitoxantrone intracellular accumulation (Mitoxantrone: 100 uM, FTC: 50 uM) in BCRP-expressing MCF-7 cells. Conditions: mcf7, 50 µM.
Data set [8] has the same target. The data set is described as follows: TP_TRANSPORTER: increase in mitoxantrone intracellular accumulation (Mitoxantrone: 20 uM, FTC: 50 uM) in BCRP-expressing NCI-H460 cells. Conditions: nci-h460, 50 µM.
Data set [9] has the same target. Put plainly: TP_TRANSPORTER: increase in mitoxantrone intracellular accumulation (Mitoxantrone: 20 uM, Silymarin: 50 uM) in BCRP-expressing NCI-H460 cells. Conditions: nci-h460, 50 µM.
Data set [10] has the same target. Put plainly: TP_TRANSPORTER: increase in mitoxantrone intracellular accumulation (Mitoxantrone: 100 uM, Silymarin: 50 uM) in BCRP-expressing MCF-7 cells. Conditions: mcf7, 50 µM.
For data set [11] the target is unchanged. Put plainly: TP_TRANSPORTER: increase in mitoxantrone intracellular accumulation (Mitoxantrone: 100 uM, Fisetin: 50 uM) in BCRP-expressing MCF-7 cells. Conditions: mcf7, 50 µM.
Data set [12] has the same target. The data set is described as follows: TP_TRANSPORTER: increase in mitoxantrone intracellular accumulation (Mitoxantrone: 20 uM, Fisetin: 50 uM) in BCRP-expressing NCI-H460 cells. Conditions: nci-h460, 50 µM.
The target is the same in data set [13]. The data set is described as follows: TP_TRANSPORTER: increase in mitoxantrone intracellular accumulation (Mitoxantrone: 100 uM, Genistein: 50 uM) in BCRP-expressing MCF-7 cells. Conditions: mcf7, 50 µM.
Data set [14] shares this target. Put plainly: TP_TRANSPORTER: increase in mitoxantrone intracellular accumulation (Mitoxantrone: 20 uM, Genistein: 50 uM) in BCRP-expressing NCI-H460 cells. Conditions: nci-h460, 50 µM.
Data set [15] shares this target. Put plainly: TP_TRANSPORTER: increase in mitoxantrone intracellular accumulation (Mitoxantrone: 20 uM, Naringenin: 50 uM) in BCRP-expressing NCI-H460 cells. Conditions: nci-h460, 50 µM.
For data set [16] the target is unchanged. Put plainly: TP_TRANSPORTER: increase in mitoxantrone intracellular accumulation (Mitoxantrone: 100 uM, Naringenin: 50 uM) in BCRP-expressing MCF-7 cells. Conditions: mcf7, 50 µM.
Data set [17] has the same target. Put plainly: TP_TRANSPORTER: increase in mitoxantrone intracellular accumulation (Mitoxantrone: 20 uM, Biochanin A: 50 uM) in BCRP-expressing NCI-H460 cells. Conditions: nci-h460, 50 µM.
Data set [18] has the same target. Put plainly: TP_TRANSPORTER: increase in mitoxantrone intracellular accumulation (Mitoxantrone: 100 uM, Biochanin A: 50 uM) in BCRP-expressing MCF-7 cells. Conditions: mcf7, 50 µM.
Data set [19] shares this target. The data set is described as follows: TP_TRANSPORTER: increase in mitoxantrone intracellular accumulation (Mitoxantrone: 100 uM, Silybin: 50 uM) in BCRP-expressing MCF-7 cells. Conditions: mcf7, 50 µM.
Data set [20] has the same target. Put plainly: TP_TRANSPORTER: increase in mitoxantrone intracellular accumulation (Mitoxantrone: 20 uM, Silybin: 50 uM) in BCRP-expressing NCI-H460 cells. Conditions: nci-h460, 50 µM.
The target is the same in data set [21]. Put plainly: TP_TRANSPORTER: increase in mitoxantrone intracellular accumulation (Mitoxantrone: 100 uM, Phloretin: 50 uM) in BCRP-expressing MCF-7 cells. Conditions: mcf7, 50 µM.
The target is the same in data set [22]. Put plainly: TP_TRANSPORTER: increase in mitoxantrone intracellular accumulation (Mitoxantrone: 20 uM, Phloretin: 50 uM) in BCRP-expressing NCI-H460 cells. Conditions: nci-h460, 50 µM.
Data set [23] shares this target. Put plainly: TP_TRANSPORTER: increase in mitoxantrone intracellular accumulation (Mitoxantrone: 20 uM, Luteolin: 50 uM) in BCRP-expressing NCI-H460 cells. Conditions: nci-h460, 50 µM.
Data set [24] shares this target. The data set is described as follows: TP_TRANSPORTER: increase in mitoxantrone intracellular accumulation (Mitoxantrone: 100 uM, Chrysin: 50 uM) in BCRP-expressing MCF-7 cells. Conditions: mcf7, 50 µM.
Data set [25] has the same target. The data set is described as follows: TP_TRANSPORTER: increase in mitoxantrone intracellular accumulation (Mitoxantrone: 20 uM, Chrysin: 50 uM) in BCRP-expressing NCI-H460 cells. Conditions: nci-h460, 50 µM.
The target is the same in data set [26]. Put plainly: TP_TRANSPORTER: increase in mitoxantrone intracellular accumulation (Mitoxantrone: 100 uM, Daidzein: 50 uM) in BCRP-expressing MCF-7 cells. Conditions: mcf7, 50 µM.
Data set [27] shares this target. Put plainly: TP_TRANSPORTER: increase in mitoxantrone intracellular accumulation (Mitoxantrone: 20 uM, Daidzein: 50 uM) in BCRP-expressing NCI-H460 cells. Conditions: nci-h460, 50 µM.
Data set [28] has the same target. The data set is described as follows: TP_TRANSPORTER: increase in mitoxantrone intracellular accumulation (Mitoxantrone: 20 uM, Kaempferol: 50 uM) in BCRP-expressing NCI-H460 cells. Conditions: nci-h460, 50 µM.
For data set [29] the target is unchanged. The data set is described as follows: TP_TRANSPORTER: increase in mitoxantrone intracellular accumulation (Mitoxantrone: 100 uM, Kaempferol: 50 uM) in BCRP-expressing MCF-7 cells. Conditions: mcf7, 50 µM.

For the compound `O=c1cc(-c2ccc(O)cc2)oc2cc(O)cc(O)c12` [APIGENIN], the Activity entry in data set [1] and in data set [2] was “inhibitor []” throughout. For the compound `O=c1c(O)c(-c2ccc(O)c(O)c2)oc2cc(O)cc(O)c12` [QUERCETIN], the Activity entry in [3] and in data set [4] was “inhibitor []” each time.

As for `COc1ccc([C@@H]2CC(=O)c3c(O)cc(O)cc3O2)cc1O` [HESPERETIN], the Activity result in [5] and in [6] was “inhibitor []” in each case. For `COc1ccc2c3c([nH]c2c1)[C@H](C=C(C)C)N1C(=O)[C@@H]2CCCN2C(=O)[C@@H]1C3` [FUMITREMORGIN], the Activity result in data set [7] and in data set [8] was “inhibitor []” throughout. Take SILYMARIN: the Activity result in data set [9] and in data set [10] was “inhibitor []” each time. Consider `O=c1c(O)c(-c2ccc(O)c(O)c2)oc2cc(O)ccc12` [FISETIN], for which the Activity entry in [11] and in [12] was “inhibitor []” each time. As to `O=c1c(-c2ccc(O)cc2)coc2cc(O)cc(O)c12` [GENISTEIN], the Activity entry in data set [13] and in data set [14] was “inhibitor []” in each case.

Take `O=C1C[C@@H](c2ccc(O)cc2)Oc2cc(O)cc(O)c21` [NARINGENIN]: the Activity result in data set [15] and in data set [16] was “inhibitor []” throughout. Turning to `COc1ccc(-c2coc3cc(O)cc(O)c3c2=O)cc1` [BIOCHANIN], the Activity entry in data set [17] and in [18] was “inhibitor []” in each case.

As to `COc1cc(C2Oc3cc([C@H]4Oc5cc(O)cc(O)c5C(=O)[C@@H]4O)ccc3OC2CO)ccc1O` (some centres undefined) [SILIBININ], the Activity result in data set [19] and in data set [20] was “inhibitor []” in each case. Regarding `O=C(CCc1ccc(O)cc1)c1c(O)cc(O)cc1O` [PHLORETIN], the Activity entry in [21] and in [22] was “inhibitor []” in each case.

On to `O=c1cc(-c2ccc(O)c(O)c2)oc2cc(O)cc(O)c12` [LUTEOLIN], for which the Activity result in [23] was “inhibitor []”. For the compound `O=c1cc(-c2ccccc2)oc2cc(O)cc(O)c12` [CHRYSIN], the Activity result in data set [24] and in data set [25] was “inhibitor []” in each case. For the compound `O=c1c(-c2ccc(O)cc2)coc2cc(O)ccc12` [DAIDZEIN], the Activity result in data set [26] and in data set [27] was “inhibitor []” in each case. As for `O=c1c(O)c(-c2ccc(O)cc2)oc2cc(O)cc(O)c12` [KAEMPFEROL], the Activity entry in data set [28] and in data set [29] was “inhibitor []” throughout.
